Data published in PubChem BioAssay (NCI).
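These data come from cells grown in 96-well plates and exposed to compound for 48 hours at five concentrations. The concentration for 50% growth inhibition is given as GI50. TGI denotes the concentration required for complete inhibition of growth.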

Columns and labels:
Assay in all cases: NCI tumour cell line growth inhibition, 48 h
[1] = tested on: IGROV1 ovarian
[2] = tested on: SF-268 CNS
[3] = tested on: PC-3 prostate
[4] = tested on: HL-60(TB) leukemia
[5] = tested on: MALME-3M melanoma
[6] = tested on: MOLT-4 leukemia
[7] = tested on: COLO 205 colon
[8] = tested on: HCT-116 colon
[9] = tested on: CCRF-CEM leukemia
[10] = tested on: SNB-19 CNS

Row | Structure (SMILES) | GI50 [1] [µM] | TGI [1] [µM] | GI50 [2] [µM] | TGI [2] [µM] | GI50 [3] [µM] | TGI [3] [µM] | GI50 [4] [µM] | TGI [4] [µM] | GI50 [5] [µM] | TGI [5] [µM] | GI50 [6] [µM] | TGI [6] [µM] | GI50 [7] [µM] | TGI [7] [µM] | GI50 [8] [µM] | TGI [8] [µM] | GI50 [9] [µM] | TGI [9] [µM] | GI50 [10] [µM] | TGI [10] [µM]
1 | COc1cc(-c2cc(/C=C/C(=O)c3ccc(Cl)c(Cl)c3)[nH]n2)cc(OC)c1OC | 24 | > 100 | 13.7 | 63.3 | 5.96 | > 100 | 7.18 | 36.7 | 29.2 | > 100 | 4.38 | 40.6 | 1.26 | 15.8 | 2.95 | 21.5 | 2.15 | 23.5 | 9.83 | > 100
2 | CC(=O)C1=C(C)N(C)C2(O)C=CC(=O)C3=C(O)c4ccccc4C(=O)C312 (stereo not drawn) | 23.5 | > 100 | 9.29 | 23.6 | 3.42 | 15.9 | > 100 | > 100 | 1.51 | 4.01 | 3.53 | > 100 | 13.8 | 38 | 2.77 | 7.09 | 1.92 | > 100 | 2.18 | 27
3 | CCCCC(=O)N/N=C/c1c(O)ccc2ccccc12 | 0.65 | 7.12 | 0.874 | > 75 | 0.953 | > 57.5 | 0.452 |  | 3.06 | 20.3 | 0.349 |  | 2.61 | > 27.6 | 1.32 | > 29.6 | 0.267 | 1.28 | 4.26 | > 100
4 | COc1cc(C2C3=C(COC3=O)Nc3c2ccc2c3CCCC2)cc2c1OCO2 (stereo not drawn) | 0.0765 | > 100 | 0.107 | 19.6 | 0.0387 | > 100 | 0.0316 | 0.09 | 81.5 | > 100 | 0.13 | > 42.4 | 0.0322 | 0.0942 | 0.039 | 3.29 | 0.0367 | > 100 | 0.0531 | > 77.4
5 | c1cncc(C2Nc3cccc4cccc(c34)N2)c1 | 11.8 | 25.6 | 33.8 | > 100 | 18.5 | 46.7 | 36.6 | > 100 | 25.6 | 57.7 | 42.5 | > 100 | 22.6 | 46.6 | 16.5 | 31.6 | 22.6 | > 100 | > 100 | > 100
6 | COC(=O)C(CBr)CBr |  | 25.5 |  | 41.9 |  | 23 |  | 1.41 |  | 4.93 |  | 16.4 |  | 3 |  | 11.5 |  | 1.83 |  | 13.3
7 | Cc1cc(C(=O)O)c(C)n1-c1cccc(C(=O)O)c1 | > 100 | > 100 | > 100 | > 100 | > 100 | > 100 | > 100 | > 100 | > 100 | > 100 | > 100 | > 100 | > 100 | > 100 | > 100 | > 100 | > 100 | > 100 | > 100 | > 100
8 | CCOC(=O)c1c(C)nc2c(c1N)CC(=O)N2CCc1ccccc1 | 1.26 | 13 | 0.477 | 19 | 0.579 | 24.2 | 0.374 | 13.1 | 1.31 | 4.9 | 0.822 | 21.4 | 0.518 | 13.6 | 0.32 | 11.2 | 0.389 | 14.4 | 4.52 | 23.3
9 | CC(/C=C/c1ccccc1)=N\NC(N)=S |  | > 100 |  | > 100 |  | > 100 |  | 41.7 |  | > 100 |  | > 100 |  | 44.2 |  | > 100 |  | > 100 |  | 79.2
